Data published in patent publication US20210186947A1, “TOMM6-INTERACTING EXTRACTS AND COMPOUNDS FOR USE IN THE TREATMENT AND PROPHYLAXIS OF NERVOUS SYSTEM DISEASES, ATHEROSCLEROSIS, HEPATITIS B INFECTION AND HUMAN PAPILLOMA VIRUS (HPV) INFECTION” (ETH ZURICH, priority 2018, published 2021).

Assays:
Salmonella strain TA2637 = conditions: cited from earlier work
neuropeptide Y (Npy) = test: Whole genome microarray gene expression analysis of aortic genes: Npy; assay type: in vivo; conditions: ApoE-/- mice, 10 mg/kg/day for 8 months
Protocol: Whole genome microarray gene expression profiling was performed with aortic specimens isolated from 9-month-old ApoE−/− mice without treatment and with oral treatment for 8 months with alizarin (10 mg/kg/day), and untreated age-matched B6 control mice. Total RNA was isolated by the RNeasy Mini kit according to the protocol of the manufacturer (Qiagen). RNA purity was between 1.8 and 2 as determined by the absorbance ratio of 260/280. RNA quality and absence of signs of degradation were also controlled by RNA electrophoresis on a denaturing agarose gel by the presence of bright bands of 28S and 18S ribosomal RNA. Total RNA was processed for whole genome microarray gene expression profiling with the GeneChip One-Cycle Target Labeling System (Affymetrix) according to the protocol of the manufacturer (Affymetrix GeneChip Expression Analysis Technical Manual Rev. 5). […]
Alzheimer's Disease (AD) is the most frequent form of dementia in the elderly. […] Atherosclerotic lesion area was assessed with oil red O-stained aortas isolated from 9-month-old ApoE−/− mice (FIG. 17A). […] The aortic expression levels of neuronal marker genes of alizarin-treated ApoE−/− mice were determined compared to untreated ApoE−/− mice and untreated B6 mice without atherosclerosis (FIG. 17D,E).

HPV-induced warts = test: Phase-1 placebo-controlled study of topical Compound-1 on flat warts; assay type: in vivo, human; conditions: once daily topical Compound-1-containing hydrogel (0.2%) for 3 weeks
Protocol: The study analyzed the treatment effect of topical administration of Compound-1 on warts. The study was performed according to the study protocol. Study design: The study was a phase-1, placebo-controlled study of Compound-1. The primary end-point was safety and tolerability. Secondary objectives were treatment effects on wart lesion size. The study included a cohort of 6 voluntary research participants (6 males; age 36-72 years; all Caucasians) with diagnosed flat warts. A total number of 94 lesions were treated with Compound-1. Vehicle-treated warts (n=88) of each participant served as placebo group. Study participants received once daily topical applications of a Compound-1-containing hydrogel (0.2%) or vehicle for 3 weeks. The study participants were under the medical supervision of Dr. Raafat Mahmood Fawzy (Clinical Director, Rabaa El Adaweya Medical Central Hospital, Cairo, Egypt). Clinical laboratory parameters of all research participants were within the normal range before, during the study and after completion of the study (observation period 4 weeks). […] The study protocol was conducted in accordance with the Declaration of Helsinki. All research participants provided written informed consent before participation. Research participants had the possibility to withdraw at any time from the study. But all participants wanted to complete the study.
A total number of 94 lesions were treated with Compound-1. Vehicle-treated warts (n=88) served as placebo. […] The treatment effect of Compound-1 against HPV infection is directly related to its activity as TOMM6 inducer/activator, which is a sufficient cause to inhibit (amyloidogenic) protein aggregation in cells and in vivo. In this context, HPV infection is another disease with causal involvement of an aggregation-prone amyloidogenic protein. Without wishing to be bound by theory, it is believed that Infections with human papillomaviruses (HPV) rely on the highly amyloidogenic protein E1AE4, also known as the HPV E4 protein (McIntosh et al., 82, 8196-8203 (2008)). The HPV E4 protein, which uses the amyloid-fold as does amyloid-beta, is the most abundantly expressed viral transcript/protein in HPV-infected epithelia, and mediates HPV-mediated disruption of cellular integrity, HPV release from infected epithelial cells and virus transmission (McIntosh et al., 82, 8196-8203 (2008); Doorbar, Virology 445, 80-98 (2013)). In HPV-induced warts, the aggregation-prone HPV E4 protein can constitute between 20% and 30% of the total wart protein (Doorbar et al., EMBO J. 5, 355-362 (1986)). The expression of E1AE4 relies on self-aggregation of the HPV E4 protein (Bryan et al., Virology 241, 49-60 (1998)).

Question: Which “mutagenicity in the Ames test” value (Salmonella strain TA2637) does the source give for O=C1c2ccccc2C(=O)c2c1ccc(O)c2O [Compound-1, 1,2-dihydroxyanthraquinone] here?
Answer: Its value is “could be mutagenic”.

Question: And the “aortic expression level of Npy” value (neuropeptide Y (Npy))?
Answer: The value was “not down-regulated and maintained at the levels of the non-transgenic B6 controls”.

Question: And the “response of treated warts” value (HPV-induced warts)?
Answer: The value was “showed a response”.

Question: And the “adverse effects (safety and tolerability)” value (HPV-induced warts; 6 participants)?
Answer: Its value is “no adverse effects”.

Question: What about the “lesions with complete response (100% decrease of the lesion area)” value (HPV-induced warts; 94 lesions) of the same compound?
Answer: The value was “more than 86%”.

Question: What about the “lesions with partial response (>50%-<100% decrease of lesion area)” value (HPV-induced warts; 94 lesions) of the same compound?
Answer: Its value is 13.8%.
